Data on five compounds can be found in patent US20160145247A1, “Aminomethyl-Biaryl Derivatives Complement Factor D inhibitors and uses thereof” (NOVARTIS AG, priority 2013, published 2016).

The target in test [1] is T1, factor D (Homo sapiens, UniProt P00746).
T1 construct: made in house; host or cells: E. coli
The test is described as follows: Human Complement Factor D ELISA Assay. The format is biochemical. The settings on record: tested using the assay of Biological Example 1 (ELISA, Ba product quantified); read-out: activity against factor D. In general terms: An ELISA detects its analyte on a solid surface through an enzyme-linked reagent.

Test [2] deals with T1, factor D. The test is described as follows: factor D inhibition assay of Biological Example 2. The test is classed as biochemical.

T1 sequence (P00746 26-253): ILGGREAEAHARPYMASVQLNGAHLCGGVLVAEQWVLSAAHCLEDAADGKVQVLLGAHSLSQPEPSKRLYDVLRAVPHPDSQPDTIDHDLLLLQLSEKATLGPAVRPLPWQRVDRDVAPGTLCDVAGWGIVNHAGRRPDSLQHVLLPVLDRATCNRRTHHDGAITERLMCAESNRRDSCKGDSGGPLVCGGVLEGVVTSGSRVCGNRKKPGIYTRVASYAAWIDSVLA

For `CC[N+]1=C(/C=C/C=C/C=C2/N(CCCCCC(=O)NC[C@@]3(F)C[C@@H](C(=O)NCc4cccc(Cl)c4F)N(C(=O)Nc4cn(C(N)=O)c5ccccc45)C3)c3ccc(S(=O)(=O)O)cc3C2(C)C)C(C)(C)c2cc(S(=O)(=O)O)ccc21` [Biological Example 2.2, 2-((1E,3E,5E)-5-(1-(6-((((3S,5S)-1-((1-carbamoyl-1H-indol-3-yl)carbamoyl)-5-((3-chloro-2-fluorobenzyl)carbamoyl)-3-fluoropyrrolidin-3-yl)methyl)amino)-6-oxohexyl)-3,3-dimethyl-5-sulfoindolin-2-ylidene)penta-1,3-dien-1-yl)-1-ethyl-3,3-dimethyl-5-sulfo-3H-indol-1-ium], the IC50 on factor D [1] came to 694 nM. In the case of `N[C@H](CO)c1cccc(-c2cc(COc3ccccc3CC(=O)O)cc(NCC3CC3)c2)c1` [Example 128-C, (S)-2-(2-((3′-(1-Amino-2-hydroxyethyl)-5-((cyclopropylmethyl)amino)-[1,1′-biphenyl]-3-yl)methoxy)phenyl)acetic acid], on factor D [2], the IC50 came out at 3 nM. Compound `C[C@@H](N)c1cccc(-c2cc(NCC(F)F)cc(N(C)Cc3ccccc3CC(=O)O)c2)c1F` [Example 216-AC] yielded an IC50 on factor D [2] of 33 nM.

The compound `Cc1cccc(NC(=O)c2cccc(-c3cc(F)cc(CN)c3)c2)c1CC(=O)O` [Example 21-H] yielded an IC50 against factor D [2] of 940 nM. Turning to `NCc1cc(F)cc(-c2cccc(C(=O)Nc3c(F)cccc3CC(=O)O)c2)c1` [Example 21-D], the IC50 at factor D [2] was 989 nM.
